# Data published in PMC9610207 (Viruses, 2022).
# Key:
# SARS-CoV-2 [1] = format: cell-based
# SARS-CoV-2 [2] = format: cell-based; remark: listed apart in the source
# SARS-CoV-2 [3] = details: cited from earlier work
# SARS-CoV-2 [4] = details: cited from earlier work; remark: listed apart in the source
structure (smiles),measurement,setting,value
"CCN(CC)CCCC(C)Nc1ccnc2cc(Cl)ccc12 (stereo not shown) [chloroquine, Chloroquine]",viral infection in VeroE6 with chloroquine,SARS-CoV-2 [1],strongly inhibited
same,viral infection in Calu-3 with chloroquine,SARS-CoV-2 [2],resistant
same,"SARS-CoV-2 infection in VeroE6, previous studies",SARS-CoV-2 [3],inhibited
same,"SARS-CoV-2 infection in Calu-3, previous studies",SARS-CoV-2 [4],not
